According to patent publication US3931407A, “Method of treatment with and compositions containing condensed pyrroles bearing an N-phenyl substituent” (American Hoechst Corporation, priority 1974, dated 1976):
Where two headings read alike, the source gives them in different places.

What was measured:
[1] = system: adjuvant-induced arthritis in rats; assay: Adjuvant-induced arthritis in rats; format: in vivo; settings: Rattus norvegicus, 504 h; for inhibition in vivo at 10 mg/kg: 10 mg/kg/day; for inhibition in vivo at 10 mg/kg / inhibition in vivo at 25 mg/kg / inhibition in vivo at 50 mg/kg / inhibition in vivo at 100 mg/kg: rats, day 21; for inhibition in vivo at 25 mg/kg: 25 mg/kg/day; for inhibition in vivo at 50 mg/kg: 50 mg/kg/day; for inhibition in vivo at 100 mg/kg: 100 mg/kg/day
[2] = system: edema induced by carrageenin in rat paws; assay: Carrageenin paw edema in rats; format: in vivo; settings: read-out: Carrageenin paw edema-rats ED50
in vivo = settings: rat, po
Procedure: A common but undesirable side effect of anti-inflammatory agents is the production of gastric irritation in mammals. […] Groups of male or female rats (Wistar, Long Evans or Charles River), 150-180 gm, are utilized for this assay using 10 animals per dose group. The animals are starved for 48 hours (H2 O ad lib) prior to administration of drug orally at 10 ml/kg. Drugs are prepared using distilled water solutions or, if insoluble, 1 drop of a dispersing agent, e.g. "Tween 80"/10 ml, is used with homogenization. The control group receives the vehicle only (10 ml/kg). […] Stomachs are removed and examined for gastric irritation, which is defined as ulceration and/or hemorrhage of gastric mucosa. The presence of a single ulcer or hemorrhage spot is taken as positive and stomachs must be "clean" to be negative. A dose response is run at the peak time using at least four dose levels of test drug. In the table, gastric irritability is expressed as ID50, the dose (mg/kg) of compound producing irritation in 50 percent of the animals after seven hours.

[3] = system: yeast-induced pyrexia in rats; assay: Antipyretic assay, yeast-induced pyrexia in rats; format: in vivo, female Charles River or Wistar rats; settings: Rattus norvegicus; dose producing ≥ 1° reduction in rectal temperature in 50 percent of fevered rats; oral; 2 hours past drug
Procedure: A common property of useful anti-inflammatory agents is their ability to lower elevated body temperatures. […] Groups of ten female Charles River or Wistar rats (120-150 gm) are injected with a 20% water suspension of "Brewers Yeast" subcutaneously into the nape of the neck (10 ml/kg). The animals are starved (water ad lib.) and 18 hours later rectal temperatures are monitored (Tele-Thermometer, Yellow Springs Instrument Co., Inc., Yellow Springs, Ohio). Animals with a temperature ≥ 37.2°C. are considered fevered. Drugs are administered orally (10 ml/kg) using distilled water and, if insoluble, one drop of a dispersing agent, e.g. "Tween 80," per 10 ml. Temperatures are recorded 2 hours past drug. Significant activity is a reduction in rectal temperature ≥ 1° from the mean control temperature. The activity of the compounds tested is expressed as ED50, the dose (mg/kg) of a compound producing a reduction of ≥ 1° in rectal temperature of fevered rats from the mean fevered control temperature in 50 percent of the animals.

[4] = system: writhing induced in mice by 2-phenyl-1,4-benzoquinone; assay: Phenylquinone (2-phenyl-1,4-benzoquinone) writhing in mice, analgesic activity; format: in vivo; settings: Mus musculus, read-out: Phenylquinone writhing-mice ED50
Text: Exp. Biol. Med., 95, 729 (1957)]. The activity of several representative compounds of the present invention and of aspirin and phenylbutazone is expressed as ED50, the dose (mg/kg) of compound producing a 50% reduction in the number of writhes as compared to non-treated 2-phenyl-1,4-benzoquinone dosed controls.

[5] = read-out: % Inhibition of Edema on Day 21, Adjuvant Injected Paw
[6] = read-out: % Inhibition of Edema on Day 21, Non-Injected Paw
[7] = dose producing 50% reduction in edema vs non-treated controls, rats
[8] = dose producing 50% reduction in number of writhes vs non-treated controls, mice

| SMILES | inhibition in vivo at 10 mg/kg [1, 5] [%] | inhibition in vivo at 10 mg/kg [1, 6] [%] | inhibition in vivo at 25 mg/kg [1, 5] [%] | inhibition in vivo at 25 mg/kg [1, 6] [%] | inhibition in vivo at 50 mg/kg [1, 5] [%] | inhibition in vivo at 50 mg/kg [1, 6] [%] | ED50 [2, 7] [mg/kg] | inhibition in vivo at 100 mg/kg [1, 5] [%] | inhibition in vivo at 100 mg/kg [1, 6] [%] | TD50 at 7 h (in vivo) [mg/kg] | ED50 [3] [mg/kg] | ED50 [4, 8] [mg/kg] | inhibition in vivo at 200 mg/kg [1, 5] [%] | inhibition in vivo at 200 mg/kg [1, 6] [%] | TD50 at 7 h (in vivo; in vivo) [mg/kg] | ED50 [2] [mg/kg] | ED50 [4] [mg/kg] |
| --- | --- | --- | --- | --- | --- | --- | --- | --- | --- | --- | --- | --- | --- | --- | --- | --- | --- |
| O=C(O)c1cc(-n2c(-c3ccccc3)cc3c2CCCC3)ccc1S [1-(3-Carboxy-4-mercaptophenyl)-2-phenyl-4,5,6,7-tetrahydroindole] | 23 | 23 | 43 | 57 | 67 | 80 | 140 |  |  |  |  |  |  |  |  |  |  |
| O=C(O)c1cc(-n2c(-c3ccccc3)cc3c2CCC3)ccc1O [1-(3-Carboxy-4-hydroxyphenyl)-2-phenyl-1,4,5,6-tetrahydrocyclopenta[b]pyrrole] |  |  |  |  |  |  | 110 | 57 | 75 | 125 | < 50 | 10 |  |  |  |  |  |
| O=C(O)c1cc(-n2c(-c3ccccc3)cc3c2CCCCC3)ccc1O [1-(3-Carboxy-4-hydroxyphenyl)-1,4,5,6,7,8-hexahydro-2-phenylcyclohepta[b]pyrrole] |  |  |  |  |  |  | 125 | 75 | 90 | > 200 | 100 | 10 |  |  |  |  |  |
| O=C(O)c1cc(-n2c(-c3ccccc3)cc3c2CCCC3)ccc1O [1-(3-Carboxy-4-hydroxyphenyl)-2-phenyl-4,5,6,7-tetrahydroindole] |  |  |  |  | 38 | 72 | 87 | 65 | 80 | 130 | 41 | 17 |  |  |  |  |  |
| CC(=O)Oc1ccc(-n2c(-c3ccccc3)cc3c2CCc2ccccc2-3)cc1C(=O)O [3-(4-Acetoxy-3-carboxyphenyl)-4,5-dihydro-2-phenylbenz[e]indole] |  |  |  |  | 56 | 68 | 70 | 82 | 93 | > 300 |  | 16.5 |  |  |  |  |  |
| O=C(O)c1cc(-n2c(-c3ccccc3)cc3c4ccccc4ccc32)ccc1O [3-(3-Carboxy-4-hydroxyphenyl)-2-phenylbenz[e]indole] |  |  | 45 | 50 | 70 | 70 | 90 |  |  | > 200 | > 100 | 16.5 |  |  |  |  |  |
| CC(=O)Oc1ccccc1C(=O)O [Aspirin, reference compound] |  |  |  |  |  |  |  |  |  |  | 35 |  | 37 | 47 | 42 | 130 to 140 | 53 |
| CCCCC1C(=O)N(c2ccccc2)N(c2ccccc2)C1=O [Phenylbutazone, reference compound] |  |  |  |  | 60 | 71 | 83 |  |  | 75 | < 50 | 89 |  |  |  |  |  |
| O=C(O)c1cc(-n2c(-c3ccccc3)cc3c2CCc2ccccc2-3)ccc1O [3-(3-Carboxy-4-hydroxyphenyl)-4,5-dihydro-2-phenylbenz[e]indole] | 27 | 29 | 49 | 72 | 69 | 81 | 63 |  |  | 300 to 350 | 69 | 10 |  |  |  |  |  |
| O=C(O)c1cc(-n2c(-c3ccc(F)cc3)cc3c2CCCC3)ccc1O [1-(3-Carboxy-4-hydroxyphenyl)-2-(4-fluorophenyl)-4,5,6,7-tetrahydroindole] |  |  |  |  |  |  | 88 | 56 | 64 |  |  |  |  |  |  |  |  |
